The values below are quoted from earlier work in patent publication US6495121B2, “Chewing gum containing dipetide sweetener with lengthened and improved flavor” (Holland Sweetner Company V.O.F., priority 1996, dated 2002).

Where a SMILES comes first, the peptide text is derived from it.

The conditions of the series: relative to sucrose.

`C[C@@H](NC(=O)[C@@H](N)CC(=O)O)C(=O)NC1C(C)(C)SC1(C)C.O` [Alitame, L-α-aspartyl-n-(2,2,4,4-tetramethyl-3-thietanyl)-D-alanineamidehydrate]: the sweetening power entry was “approximately 2000 × that of sucrose”.
Consider `COC(=O)[C@H](Cc1ccccc1)NC(=O)[C@@H](N)CC(=O)O` [Aspartame, α-L-aspartyl-L-phenylalaninemethylester] (H-Asp-Phe-OMe), for which the sweetening power entry is “approximately 200 × that of sucrose”.
